We go through 27 compounds from patent US6855713B2, “Benzimidazole derivatives, a process for their manufacture and use as a medicine” (Boehringer Ingelheim Pharma KG, priority 2001, dated 2005).

Structures are written as SMILES. Structures can show the parent of a compound that is named as a salt.

The assay addresses T1, rh beta trypsin (Homo sapiens, UniProt P20231).
T1 construct: purchased Promega
The experiment in a line: Trypsin (tryptase) inhibition, cleavage of N-p-Gly-Pro-Lys-para-nitroaniline measured at 405 nm. It is filed as biochemical. The following applies: in vitro; tris-HCl buffer pH 7.4 with calcium and heparin; substrate 0.6 mM; 5 minutes, 37° C.; read-out: Trypsin-inhibiting property. As for the experimental part: The compounds of the invention are notable for their effective trypsin-inhibiting property. The said capacity to inhibit trypsin activity was determined in accordance with the following trial descriptions.
The determinations are carried out in tris-HCl buffer (100 mM), that also contained calcium (5 mM) and heparin ([…]), at a pH of 7.4. As the standard, rh beta trypsin is used, this is commercially obtainable, for example, from Promega. A suitable substrate is N-p-Gly-Pro-Lys-para-nitroaniline in a concentration of 0.6 mM. The substrate is digested with trypsin, whereby p-nitro-aniline is obtained that can be measured at 405 nm. Normally, an incubation period of 5 minutes and an incubation temperature of 37° C. is chosen. For the enzyme activity, 0.91 U/ml are used. The determination is carriedout in an auto-analyser (Cobas Bio) from the firm Hoffmann LaRoche. The potential inhibitor substances are used in the screening procedure in concentrations of 10 μM, and the inhibition of the trypsin is given in percentages. At an inhibition in excess of 70%, the IC50 is determined (the concentration at which 50% of the enzyme activity is inhibited). After a 5-minute pre-incubation of the potential inhibiting substance, the substrate is added for the start of the reaction, whereby the production of p-nitro-aniline is taken, after 5 minutes, after testing the linearity, as a measure of the enzyme activity.

T1 sequence (P20231 31-275): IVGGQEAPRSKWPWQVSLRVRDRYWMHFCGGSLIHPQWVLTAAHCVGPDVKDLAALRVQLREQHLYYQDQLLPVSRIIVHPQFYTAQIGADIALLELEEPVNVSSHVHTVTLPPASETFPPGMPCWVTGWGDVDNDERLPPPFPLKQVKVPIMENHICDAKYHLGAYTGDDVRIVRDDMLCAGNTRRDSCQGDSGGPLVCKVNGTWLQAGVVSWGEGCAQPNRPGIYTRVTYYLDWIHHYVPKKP

For the compound `Cn1c(CCc2ccc(C(=N)N)cc2)nc2cc(C(=O)N3CCN(C/C=C/c4ccccc4)CC3)ccc21` [Example 1, [2-(4-amidinophenyl)-ethyl]-1-methyl-benzimidazole-5-yl-carboxylic acid-[4-(3-phenyl-allyl)-piperazinyl]-amide-dihydrochloride], the IC50 was in the range of 1 to 20 nM.
The same measure for `Cn1c(CCc2ccc(CN)cc2)nc2cc(C(=O)N3CCC(NC(=O)c4ccccc4)CC3)ccc21` [Example 15, 2-[2-(4-Aminomethylphenyl)-ethyl]-1-methyl-benzimidazole-5-yl-carboxylic acid-(4-benzamido-piperidinyl)-amide]: 1 to 20 nM; for `CCOCCCn1c(CCc2ccc(C(=N)N)cc2)nc2cc(C(=O)N3CCC(NC(=O)Nc4ccccc4)CC3)ccc21` [Example 20, 2-[2-(4-Amidinophenyl)-ethyl]-1-(3-ethoxy-propyl)-benzimidazol-5-yl-carbonsäure-[4-(3-phenyl-ureido)-piperidinyl]-amid-dihydrochlorid]: 1 to 20 nM.
`Cc1cccc(NC(=O)NC2CCN(C(=O)c3ccc4c(c3)nc(CCc3ccc(C(=N)N)cc3)n4C)CC2)c1` [Example 25, 4-(2-{1-Methyl-5-[4-(3-m-tolyl-ureido)-piperidine-1-carbonyl]-1H-benzimidazole-2-yl}-ethyl)-benzamidine]: the IC50 lay within 1 to 20 nM.
The same measure for `Cn1c(CCc2ccc(C(=N)N)cc2)nc2cc(C(=O)N3CCC(NC(=O)Nc4cccc(F)c4)CC3)ccc21` [Example 26, 4-[2-(5-{4-[3-(3-Fluoro-phenyl)-ureido]-piperidine-1-carbonyl}-1-methyl-1H-benzimidazole-2-yl)-ethyl]-benzamidine]: 1 to 20 nM; for `Cn1c(CCc2ccc(C(=N)N)cc2)nc2cc(C(=O)N3CCC(NC(=O)Nc4ccccc4F)CC3)ccc21` [Example 27, 4-[2-(5-{4-[3-(2-Fluoro-phenyl)-ureido]-piperidine-1-carbonyl}-1-methyl-1H-benzimidazole-2-yl)-ethyl]-benzamidine]: 0.1 to 1 nM.
For `COc1cccc(NC(=O)NC2CCN(C(=O)c3ccc4c(c3)nc(CCc3ccc(C(=N)N)cc3)n4C)CC2)c1` [Example 28, 4-[2-(5-{4-[3-(3-Methoxy-phenyl)-ureido]-piperidine-1-carbonyl}-1-methyl-1H-benzimidazole-2-yl)-ethyl]-benzamidine], the IC50 lay within 0.1 to 1 nM.
`Cn1c(CCc2ccc(C(=N)N)cc2)nc2cc(C(=O)N3CCC(NC(=O)Nc4ccccc4Cl)CC3)ccc21` [Example 29, 4-[2-(5-{4-[3-(2-Chloro-phenyl)-ureido]-piperidine-1-carbonyl}-1-methyl-1H-benzimidazole-2-yl)-ethyl]-benzamidine]: the IC50 fell in the range of 0.1 to 1 nM.
As to `COc1ccccc1NC(=O)NC1CCN(C(=O)c2ccc3c(c2)nc(CCc2ccc(C(=N)N)cc2)n3C)CC1` [Example 30, 4-[2-(5-{4-[3-(2-Methoxy-phenyl)-ureido]-piperidine-1-carbonyl}-1-methyl-1H-benzimidazole-2-yl)-ethyl]-benzamidine], the IC50 is 1 to 20 nM.
Take `Cn1c(CCc2ccc(C(=N)N)cc2)nc2cc(C(=O)N3CCC(NC(=O)Nc4ccc(Cl)cc4)CC3)ccc21` [Example 31, 4-[2-(5-{4-[3-(4-Chloro-phenyl)-ureido]-piperidine-1-carbonyl}-1-methyl-1H-benzimidazole-2-yl)-ethyl]-benzamidine]: the IC50 lay within 1 to 20 nM.
`Cn1c(CCc2ccc(C(=N)N)cc2)nc2cc(C(=O)N3CCC(NC(=O)Nc4cccc(C(F)(F)F)c4)CC3)ccc21` [Example 32, 4-[2-(1-Methyl-5-{4-[3-(3-trifluoromethyl-phenyl)-ureido]-piperidine-1-carbonyl}-1H-benzimidazole-2-yl)-ethyl]-benzamidine]: the IC50 lay within 1 to 20 nM.
The same measure for `Cn1c(CCc2ccc(C(=N)N)cc2)nc2cc(C(=O)N3CCC(NC(=O)Nc4ccc(F)cc4F)CC3)ccc21` [Example 33, 4-[2-(5-{4-[3-(2,4-Difluoro-phenyl)-ureido]-piperidine-1-carbonyl}-1-methyl-1H-benzimidazole-2-yl)-ethyl]-benzamidine]: 1 to 20 nM; for `Cn1c(CCc2ccc(C(=N)N)cc2)nc2cc(C(=O)N3CCC(NC(=O)Nc4cccc5ccccc45)CC3)ccc21` [Example 34, 4-(2-{1-Methyl-5-[4-(3-naphthalen-1-yl-ureido)-piperidine-1-carbonyl]-1H-benzimidazole-2-yl}-ethyl)-benzamidine]: 1 to 20 nM.
With `Cn1c(CCc2ccc(C(=N)N)cc2)nc2cc(C(=O)N3CCC(NC(=O)Nc4ccc(Cl)cc4Cl)CC3)ccc21` [Example 35, 4-[2-(5-{4-[3-(2,4-Dichloro-phenyl)-ureido]-piperidine-1-carbonyl}-1-methyl-1H-benzimidazole-2-yl)-ethyl]-benzamidine], the IC50 lay within 1 to 20 nM.
On to `Cn1c(CCc2ccc(C(=N)N)cc2)nc2cc(C(=O)N3CCC(NC(=O)Nc4ccc5ccccc5c4)CC3)ccc21` [Example 36, 4-(2-{1-Methyl-5-[4-(3-naphthalen-2-yl-ureido)-piperidine-1-carbonyl]-1H-benzimidazole-2-yl}-ethyl)-benzamidine], for which the IC50 was 1 to 20 nM.
With `Cn1c(CCc2ccc(C(=N)N)cc2)nc2cc(C(=O)N3CCC(NC(=O)Nc4ccccc4Br)CC3)ccc21` [Example 37, 4-[2-(5-{4-[3-(2-Bromo-phenyl)-ureido]-piperidine-1-carbonyl}-1-methyl-1H-benzimidazole-2-yl)-ethyl]-benzamidine], the IC50 lay within 0.1 to 1 nM.
For the compound `Cn1c(CCc2ccc(C(=N)N)cc2)nc2cc(C(=O)N3CCC(NC(=O)Nc4c(F)cccc4F)CC3)ccc21` [Example 38, 4-[2-(5-{4-[3-(2,6-Difluoro-phenyl)-ureido]-piperidine-1-carbonyl}-1-methyl-1H-benzimidazole-2-yl)-ethyl] -benzamidine], the IC50 was 1 to 20 nM.
Regarding `Cn1c(CCc2ccc(C(=N)N)cc2)nc2cc(C(=O)N3CCC(NC(=O)Nc4ccc(Br)cc4)CC3)ccc21` [Example 39, 4-[2-(5-{4-[3-(4-Bromo-phenyl)-ureido]-piperidine-1-carbonyl}-1-methyl-1H-benzimidazole-2-yl)-ethyl] -benzamidine], the IC50 was 1 to 20 nM.
The same measure for `Cn1c(CCc2ccc(C(=N)N)cc2)nc2cc(C(=O)N3CCC(NC(=O)NC4CCCCC4)CC3)ccc21` [Example 40, 4-(2-{5-[4-(3-Cyclohexyl-ureido)-piperidine-1-carbonyl]-1-methyl-1H-benzimidazole-2-yl}-ethyl)-benzamidine]: 1 to 20 nM; for `Cn1c(CCc2ccc(C(=N)N)cc2)nc2cc(C(=O)N3CCC(NC(=O)Nc4ccc(C(F)(F)F)cc4)CC3)ccc21` [Example 41, 4-[2-(1-Methyl-5-{4-[3-(4-trifluoromethyl-phenyl)-ureido]-piperidine-1-carbonyl}-1H-benzimidazole-2-yl)-ethyl]-benzamidine]: 1 to 20 nM.
Take `Cn1c(CCc2ccc(C(=N)N)cc2)nc2cc(C(=O)N3CCC(NC(=O)Nc4ccc(F)cc4)CC3)ccc21` [Example 42, 4-[2-(5-{4-[3-(4-Fluoro-phenyl)-ureido]-piperidine-1-carbonyl}-1-methyl-1H-benzimidazole-2-yl)-ethyl]-benzamidine]: the IC50 lay in the range of 1 to 20 nM.
The same measure for `Cn1c(CCc2ccc(C(=N)N)cc2)nc2cc(C(=O)N3CCC(NC(=O)Nc4cccc(Br)c4)CC3)ccc21` [Example 43, 4-[2-(5-{4-[3-(3-Bromo-phenyl)-ureido]-piperidine-1-carbonyl}-1-methyl-1H-benzimidazole-2-yl)-ethyl]-benzamidine]: 0.1 to 1 nM; for `Cn1c(CCc2ccc(C(=N)N)cc2)nc2cc(C(=O)N3CCC(NC(=O)c4cccc(Cl)c4)CC3)ccc21` [Example 44, 2-[2-(4-Amidinophenyl)-ethyl]-1-methyl-benzimidazole-5-yl-carboxylic acid-[4-(3-chloro)-benzamidopiperidinyl)-amide]: 0.1 to 1 nM; for `Cn1c(CCc2ccc(C(=N)N)cc2)nc2cc(C(=O)N3CCC(NC(=O)c4cccc(Br)c4)CC3)ccc21` [Example 45, 2-[2-(4-Amidinophenyl)-ethyl]-1-methyl-benzimidazole-5-yl-carboxylic acid-[4-(3-bromo)-benzamidopiperidinyl)-amide]: 0.1 to 1 nM.
In the case of `Cn1c(CCc2ccc(C(=N)N)cc2)nc2cc(C(=O)N3CCC(NC(=O)c4ccccc4O)CC3)ccc21` [Example 46, 2-[2-(4-Amidinophenyl)-ethyl]-1-methyl-benzimidazole-5-yl-carboxylic acid-[4-(2-hydroxy)-benzamidopiperidinyl)-amide], the IC50 is 1 to 20 nM.
The same measure for `Cn1c(CCc2ccc(C(=N)N)cc2)nc2cc(C(=O)N3CCC(NC(=O)c4cccc(Cl)c4Cl)CC3)ccc21` [Example 49, 2-[2-(4-Amidinophenyl)-ethyl]-1-methyl-benzimidazole-5-yl-carboxylic acid-[4-(2,3-dichloro)-benzamidopiperidinyl)-amide]: 1 to 20 nM; for `COc1ccccc1C(=O)NC1CCN(C(=O)c2ccc3c(c2)nc(CCc2ccc(C(=N)N)cc2)n3C)CC1` [Example 50, 2-[2-(4-Amidinophenyl)-ethyl]-1-methyl-benzimidazole-5-yl-carboxylic acid-[4-(2-methoxy)-benzamidopiperidinyl)-amide]: 1 to 20 nM.
